From the NIST ThermoML archive (doi:10.1016/j.fluid.2006.02.023)
Numbers after ± are expanded uncertainties.

Settings: 303.15 K; 101.33 kPa; Liquid

mass density	speed of sound	viscosity	SMILES
777.3 ± 0.9 kg/m3	1126.6 ± 2.4 m/s	1.614 ± 0.076 mPa·s	CC(C)O [propan-2-ol]
1051.8 ± 1.2 kg/m3	1288.5 ± 2.6 m/s	0.5487 ± 0.03 mPa·s	C1COCO1 [1,3-dioxolane]
803.2 ± 0.9 kg/m3	1197 ± 2.5 m/s	3.111 ± 0.14 mPa·s	CC(C)CCO [3-methylbutan-1-ol]
795.8 ± 0.9 kg/m3	1182.6 ± 2.5 m/s	1.663 ± 0.078 mPa·s	CCCO [propan-1-ol]
775.1 ± 0.9 kg/m3	1078.8 ± 2.3 m/s	3.099 ± 0.14 mPa·s	CC(C)(C)O [2-methylpropan-2-ol]
784.4 ± 0.9 kg/m3	1144.3 ± 2.4 m/s	0.9675 ± 0.048 mPa·s	CCO [ethanol]
–	1505.2 ± 3 m/s	0.7975 ± 0.041 mPa·s	O [water]
799.2 ± 0.9 kg/m3	1168.9 ± 2.4 m/s	2.339 ± 0.11 mPa·s	CCC(C)O (centres undefined) [butan-2-ol]
782.4 ± 0.9 kg/m3	1088.5 ± 2.3 m/s	0.5041 ± 0.028 mPa·s	CO [methanol]
802.1 ± 0.9 kg/m3	1196.6 ± 2.5 m/s	2.54 ± 0.11 mPa·s	CCCCO [butan-1-ol]
